The test system of the experiment is IL-2 production. As to the kind of experiment: Inhibition of IL-2 production in PHA-activated Jurkat cells (ELISA). It is filed as cell-based. The note with it: Homo sapiens. The protocol: Jurkat cells were placed in a 96 well plate (0.5 million cells per well in 1% FBS medium) then test compounds of this invention were added at different concentrations. After 10 minutes, the cells were activated with PHA (final concentration 2.5 μg/mL) and incubated for 20 hours at 37° C. under CO2. The final volume was 200 μL. Following incubation, the cells were centrifuged and the supernatants collected and stored at −70° C. prior to assaying for IL-2 production. A commercial ELISA kit (IL-2 Eli-pair, Diaclone Research, Besancon, France) was used to detect production of IL-2, from which dose response curves were obtained. The IC50 value was calculated as the concentration at which 50% of maximum IL-2 production after stimulation was inhibited versus a non-stimulation control.

The mark [1] stands for this setting: PHA 2.5 μg/mL, 20 hours, value bins.

As to `Cc1cc(C(=O)Nc2ccc(-c3cc(C(F)(F)F)ccc3C(F)(F)F)cc2)no1` [Compound 39, 5-Methyl-isoxazol-3-carboxylic acid (2′,5′-bis-trifluoromethyl-biphenyl-4-yl)-amide], for the setting “PHA, bin 500 nM-1 μM”, the IC50 was 500 to 1000 nM. Under setting [1], `COc1ccc(Cl)cc1-c1ccc(NC(=O)c2ccncc2C)cc1` [Compound 65, 3-methyl-pyridine-4-carboxylic acid (2′-methoxy-5′-chlorobiphenyl-4-yl)-amide] registered an IC50 of under 100 nM. Still for that read-out and setting: for `Cc1ccc(C)c(-c2ccc(NC(=O)c3cccc(F)c3F)cc2)c1` [Compound 47, N-(2′,5′-dimethyl-biphenyl-4-yl)-2,3-difluorobenzamide] the value was under 100 nM.

Under “PHA, bin >1 μM”, `Cc1nc(C)c(C(=O)Nc2ccc(-c3ccccc3C(F)(F)F)cc2)s1` [Compound 11, 2,4-Dimethyl-thiazole-5-carboxylic acid (2′-trifluoromethyl-biphenyl-4-yl)-amide] displayed an IC50 of over 1000 nM. The compound `CCc1ccc(CC)c(-c2ccc(NC(=O)c3ccncc3C)cc2)c1` [Compound 79, 3-methyl-pyridine-4-carboxylic acid (2′,5′-diethylbiphenyl-4-yl)-amide] came in with an IC50 under setting [1] of under 100 nM.

Under setting [1], `CCOc1ccc(Cl)cc1-c1ccc(NC(=O)c2ccncc2C)cc1` [Compound 82, 3-methyl-pyridine-4-carboxylic acid (2′-ethoxy-5′-chlorobiphenyl-4-yl)-amide] returned an IC50 of under 100 nM. Take `Cc1cnccc1C(=O)Nc1ccc(-c2cc(C(F)(F)F)ccc2Cl)cc1` [Compound 74, 3-methyl-pyridine-4-carboxylic acid (2′-chloro-5′-trifluoromethylbiphenyl-4-yl)-amide]: the IC50 under setting [1] was under 100 nM. On the same count and under the same terms, for `COc1ccc(Cl)cc1-c1ccc(NCc2c(F)cccc2F)cc1` [Compound 129, N-(2′-methoxy-5′-chloro-biphenyl-4-yl)-2,6-difluoro-benzyl amine] the value was under 100 nM. Still for that read-out and setting: for `Cc1cccc(C(=O)Nc2ccc(-c3cc(C(F)(F)F)ccc3C(F)(F)F)cc2)c1C` [Compound 53, N-(2′,5′-bis-trifluoromethyl-biphenyl-4-yl)-2,3-dimethylbenzamide] the value was under 100 nM. On the same count and under the same terms, for `Cc1oncc1C(=O)Nc1ccc(-c2cc(C(F)(F)F)ccc2C(F)(F)F)cc1` [Compound 51, 5-methylisoxazole-4-carboxylic acid (2′,5′-bis-trifluoromethyl-biphenyl-4-yl)-amide] the value was 100 to 500 nM. For `O=C(Nc1ccc(-c2cc(Cl)ccc2Cl)cc1)c1c(F)cccc1F` [Compound 88, N-(2′,5′-dichlorobiphenyl-4-yl)-2,6-difluorobenzamide], the IC50 under setting [1] is under 100 nM. Same read-out and setting: for `COc1ccc(OC)c(-c2ccc(NC(=O)c3ccccc3C)cc2)c1` [Compound 59, N-(2′,5′-dimethoxy-biphenyl-4-yl)-2-methylbenzamide] the value was under 100 nM. In the case of `O=C(Nc1ccc(-c2ccccc2C(F)(F)F)cc1)c1cnccc1C(F)(F)F` [Compound 12, 4-Trifluoromethyl-N-(2′-trifluoromethyl-biphenyl-4-yl)-nicotinamide], the IC50 under setting [1] lay in the range of 100 to 500 nM.

`Cc1noc(C)c1C(=O)Nc1ccc(-c2cc(C(F)(F)F)ccc2C(F)(F)F)cc1` [Compound 43, 3,5-dimethylisoxazole-4-carboxylic acid (2′,5′-bis-trifluoromethyl-biphenyl-4-yl)-amide]: under setting [1], the IC50 is under 100 nM. Under setting [1], `CCc1ccccc1-c1ccc(NC(=O)c2ccncc2C)cc1` [Compound 76, 3-methyl-pyridine-4-carboxylic acid (2′-ethyl-biphenyl-4-yl)-amide] came in with an IC50 of under 100 nM. Under “PHA, bin >1 μM”, `O=C(Nc1ccc(-c2ccccc2C(F)(F)F)cc1)c1cnccn1` [Compound 26, Pyrazine-2-carboxylic acid (2′-trifluoromethyl-biphenyl-4-yl)-amide] displayed an IC50 of over 1000 nM. Under setting [1], `COc1ccc(OC)c(-c2ccc(NC(=O)c3c(F)cccc3F)cc2)c1` [Compound 125, N-(2′,5′-dimethoxy-biphenyl-4-yl)-2,6-difluoro-benzamide] had an IC50 of under 100 nM. In the case of `COc1ccc(OC)c(-c2ccc(NC(=O)c3snnc3C)cc2)c1` [Compound 58, 4-methyl-[1,2,3]-thiadiazole-5-carboxylic acid (2′,5′-dimethoxy-biphenyl-4-yl)-amide], under setting [1], the IC50 was under 100 nM. The same measure, in the same setting: for `COc1ccc(C(C)=O)cc1-c1ccc(NC(=O)c2snnc2C)cc1` [Compound 71, 4-methyl-[1,2,3]-thiadiazole-5-carboxylic acid (2′-methoxy-5′-acetylbiphenyl-4-yl)-amide] the value was 100 to 500 nM. With `Cc1nc(C(=O)Nc2ccc(-c3ccccc3C(F)(F)F)cc2)c(C(F)(F)F)o1` [Compound 13, 2-Methyl-5-trifluoromethyl-oxazole-4-carboxylic acid (2′-trifluoromethyl-biphenyl-4-yl)-amide], the IC50 (PHA, bin >1 μM) was over 1000 nM. As to `Cc1nnsc1C(=O)Nc1ccc(-c2cc(C(F)(F)F)ccc2Cl)cc1` [Compound 27, 4-Methyl-[1,2,3]thiadiazole-5-carboxylic acid (2′-chloro-5′-trifluoromethyl-biphenyl-4-yl)-amide], the IC50 under setting [1] was under 100 nM.

As to `Cc1cc(C)c(-c2ccc(NC(=O)c3cccc(F)c3F)cc2)cc1C` [Compound 52, N-(2′,4′,5′-trimethyl-biphenyl-4-yl)-2,3-difluorobenzamide], under setting [1], the IC50 is under 100 nM. As to `O=C(Nc1ccc(-c2ccccc2C(F)(F)F)cc1)c1cc(F)ccc1F` [Compound 16, 2,5-Difluoro-N-(2′-trifluoromethyl-biphenyl-4-yl)-benzamide], the IC50 under setting [1] lay within 100 to 500 nM. On the same count and under the same terms, for `O=C(Nc1ccc(-c2c(C(F)(F)F)cc3ccccn23)cc1)c1cc(F)ccc1F` [Compound 90, 2,5-Difluoro-N-[4-(2-trifluoromethyl-indolizin-3-yl)-phenyl]-benzamide] the value was 100 to 500 nM; for `O=C(Nc1ccc(-c2ccccc2C(F)(F)F)cc1)c1ccncc1F` [Compound 1, 3-Fluoro-N-(2′-trifluoromethyl-biphenyl-4-yl)-isonicotinamide], 100 to 500 nM; for `COc1ccccc1C(=O)Nc1ccc(-c2cc(C(F)(F)F)ccc2C(F)(F)F)cc1` [Compound 38, N-(2′,5′-bis-trifluoromethyl-biphenyl-4-yl)-2-methoxy-benzamide], 100 to 500 nM. On to `O=C(Nc1ccc(-c2cc(C(F)(F)F)ccc2C(F)(F)F)cc1)c1ccncc1F` [Compound 68, 3-fluoro-pyridine-4-carboxylic acid (2′,5′-bis-trifluoromethylbiphenyl-4-yl)-amide], for which the IC50 under setting [1] is under 100 nM. The same measure, in the same setting: for `Cn1cncc1C(=O)Nc1ccc(-c2cc(C(F)(F)F)ccc2C(F)(F)F)cc1` [Compound 62, 1-methyl-1H-imidazole-5-carboxylic acid (2′,5′-bis-trifluoromethyl-biphenyl-4-yl)-amide] the value was 100 to 500 nM. Regarding `Cc1ccsc1C(=O)Nc1ccc(-n2c(C(F)(F)F)nnc2C(F)(F)F)cc1` [Compound 34, 3-Methyl-thiophene-2-carboxylic acid-(4-(3,5-bis-trifluoromethyl-[1,2,4]triazol-4-yl)-phenyl)-amide], the IC50 under setting [1] lay within 100 to 500 nM. Still for that read-out and setting: for `O=C(Nc1ccc(-c2cc(C(F)(F)F)ccc2C(F)(F)F)cc1)c1csnn1` [Compound 41, [1,2,3]-Thiadiazole-4-carboxylic acid (2′,5′-bis-trifluoromethyl-biphenyl-4-yl)-amide] the value was 100 to 500 nM; for `O=C(Nc1ccc(-c2cc(C(F)(F)F)ccc2C(F)(F)F)cc1)c1ccno1` [Compound 42, Isoxazole-5-carboxylic acid (2′,5′-bis-trifluoromethyl-biphenyl-4-yl)-amide], 100 to 500 nM; for `Cc1ccc(C)c(-c2ccc(NC(=O)c3c(F)cccc3F)cc2)c1` [Compound 87, N-(2′,5′-dimethylbiphenyl-4-yl)-2,6-difluorobenzamide], under 100 nM. Same read-out and setting: for `O=C(Nc1ccc(-c2cc(C(F)(F)F)ccc2C(F)(F)F)cc1)c1cc(F)ccc1F` [Compound 28, N-(2′,5′-Bis-trifluoromethyl-biphenyl-4-yl)-2,5-difluoro-benzamide] the value was under 100 nM; for `Cc1c(Cl)cccc1C(=O)Nc1ccc(-c2cc(C(F)(F)F)ccc2C(F)(F)F)cc1` [Compound 54, N-(2′,5′-bis-trifluoromethyl-biphenyl-4-yl)-2-methyl-3-chlorobenzamide], under 100 nM; for `O=C(Nc1ccc(-c2cc(C(F)(F)F)ccc2C(F)(F)F)cc1)c1cccc(F)c1F` [Compound 18, N-(2′,5′-Bis-trifluoromethyl-biphenyl-4-yl)-2,3-difluoro-benzamide], under 100 nM. For `O=C(Nc1ccc(-c2ccccc2C(F)(F)F)cc1)c1ccc(F)cc1` [Compound 10, 4-Fluoro-N-(2′-trifluoromethyl-biphenyl-4-yl)-benzamide], the IC50 (PHA, bin >1 μM) is over 1000 nM.

Consider `Cc1cc2ccccn2c1-c1ccc(NC(=O)c2snnc2C)cc1` [Compound 91, 4-methyl-N-[4-(2-methyl-indolizin-3-yl)-phenyl]-[1,2,3]thiadiazole 5-carboxylic acid amide], for which, under setting [1], the IC50 was in the range of 100 to 500 nM. The same measure, in the same setting: for `COc1ccc(Cl)cc1-c1ccc(NC(=O)c2ccncc2F)cc1` [Compound 67, 3-fluoro-pyridine-4-carboxylic acid (2′-methoxy-5′-chlorobiphenyl-4-yl)-amide] the value was under 100 nM; for `Cc1ccc(C)c(-c2ccc(NC(=O)c3ccncc3C)cc2)c1` [Compound 70, 3-methyl-pyridine-4-carboxylic acid (2′,5′-dimethylbiphenyl-4-yl)-amide], 100 to 500 nM. The same measure, in the same setting: for `O=C(Nc1ccc(-c2ccc(F)cc2C(F)(F)F)cc1)c1cccc(F)c1F` [Compound 20, 2,3-Difluoro-N-(4′-fluoro-2′-trifluoromethyl-biphenyl-4-yl)-benzamide] the value was under 100 nM.

For the origin of these results see US20050148633A1 (priority 2003, published 2005).
